# Measurements taken from article PMC5407626 (PLoS ONE, 2017).
# “And” between values parts separate entries of the source, which are not always exact repeats. Equal entries are not always repeated. Where two headings read alike, the source gives them in different places.
# Key:
# DES1 = target: T1, DES1 (Homo sapiens, UniProt O15121); test: DES1 activity in ARPE-19 cells (dihydroceramide/ceramide ratio, LC/MS); type: cell-based; design: DHCER (C18) / CER (C18) / DHCER (C16) / CER (C16): unit not given here; conditions: 10 μM, 24 h; for increase in dihydroceramide/ceramide ratio, C18 ceramide: compared to DMSO control; for MEAN RATIO (DH / C) C16 / MEAN RATIO C18 DHCER/CER: mean of 3; for MEAN RATIO (DH / C) C16: DMSO 0.08; for MEAN RATIO C18 DHCER/CER: DMSO 0.289
# T1 construct: endogenous in cells; host or cells: ARPE-19
# T1 sequence (O15121 1-323): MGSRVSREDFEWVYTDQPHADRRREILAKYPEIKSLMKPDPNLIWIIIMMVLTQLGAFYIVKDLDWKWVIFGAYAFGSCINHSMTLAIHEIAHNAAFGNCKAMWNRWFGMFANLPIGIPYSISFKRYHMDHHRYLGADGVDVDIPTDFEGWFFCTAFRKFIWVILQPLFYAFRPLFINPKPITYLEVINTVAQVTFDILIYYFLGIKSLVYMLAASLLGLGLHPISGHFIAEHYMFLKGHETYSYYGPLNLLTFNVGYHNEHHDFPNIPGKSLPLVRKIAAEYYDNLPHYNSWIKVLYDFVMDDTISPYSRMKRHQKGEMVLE
# Method: ARPE-19 cells were seeded onto tissue culture plates at a density of 2x10^5 cells/ml in complete medium and allowed to grow overnight. Cells were then treated with retinoids (10 μM) or vehicle (control) for 24 hours in a 37°C, 5% CO2 incubator at which time cells were harvested and total lipids were extracted into methyl-tert-butyl ether (MTBE) using the method of Matyash et al.. Extracted lipids normalized to total protein as described were subjected to liquid chromatography mass spectrometry (LC/MS) to determine the sphingolipid content in treated ARPE-19 cells. LC/MS analysis was performed using a Waters 2695 LC system coupled to an AB Sciex API2000 triple quadrupole mass spectrometer. […] The mass spectral analysis of the sphingolipid species was performed using electrospray ionization in the positive ion mode with multiple reaction monitoring (MRM). The following compound-specific transitions for precursor and characteristic product ions were used: 538 → 264 for C16 Ceramide (Cer); 540 → 266 for C16 dihydroceramide (DHCer); 566 →264 for C18 Cer; and 568 → 266 for C18 DHCer. Data was acquired and analyzed using Analyst software v 1.5 (AB Sciex).
# The ratio of substrate to product for C16 and C18 ceramides (dihydroceramide/ceramide) in the presence of DMSO or inhibitors was determined by LC/MS.
# Lipids were extracted from one 100 mm Petri dish for each biological replicate and subjected to mass spectrometry analysis. Data plotted as means±standard deviation; n = 3.
# RARβ [1] = target: T2, RARβ (Homo sapiens, UniProt P10826); test: GeneBLAzer RAR-beta DA assay, antagonist mode (competition with at-RA); type: cell-based; conditions: for competition with all-trans-retinoic acid: at-RA 0.5–1.5 nM, tested 10^−5 to 10^−9 M
# T2 sequence (P10826 183-417 limits assumed): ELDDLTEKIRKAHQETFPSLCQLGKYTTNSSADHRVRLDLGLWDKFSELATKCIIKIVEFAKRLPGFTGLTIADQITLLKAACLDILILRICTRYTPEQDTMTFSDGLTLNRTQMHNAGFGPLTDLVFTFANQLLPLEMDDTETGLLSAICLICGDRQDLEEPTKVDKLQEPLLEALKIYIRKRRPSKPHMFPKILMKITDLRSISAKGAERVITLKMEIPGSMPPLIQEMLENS
# Method: (§1) The potency of agonists and antagonists was measured by GeneBLAzer RAR-beta DA Assay Kit (ThermoFisher Scientific) according to the manufacturer’s recommendations.
# The phenylretinamides may have the ability to modulate the expression of proteins and induce cell apoptosis via RAR-dependent and -independent pathways. […] Additionally, apoptosis of neuroblastoma cell lines was blocked by two retinoic acid receptor (RAR)-β/γ-specific antagonists, but not by a RARα-specific antagonist. […] However, in this case the specific RARα-specific antagonist AGN194301 could block fenretinde-induced apoptosis. […] Human retina-derived cells in culture show differences in expression of RAR receptors. […] Clonetics HRPE primary human cells specifically express only RARβ [50].
# Fluorescence was measured at excitation (ex) 409 nm/emission (em) 460 and at ex 409nm/em 530 nm and the ratio was determined and plotted against a range of concentrations (10^−5 to 10^−9 M) of the tested compounds.
# RARβ [2] = target: T2, RARβ; design: method as in Invitrogen; conditions: RARβ agonist assay; ref Invitrogen; read-out: EC50 from Invitrogen; cited from earlier work
# RARβ [3] = target: T2, RARβ; test: GeneBLAzer RAR-beta DA assay, agonist mode; type: cell-based
# Method: as §1
# The phenylretinamides may have the ability to modulate the expression of proteins and induce cell apoptosis via RAR-dependent and -independent pathways. […] Human retina-derived cells in culture show differences in expression of RAR receptors. […] Clonetics HRPE primary human cells specifically express only RARβ [50].
# [4] = humans; cited from earlier work
# RBP4 = RBP4 (Homo sapiens, UniProt P02753); design: method as in PMID 16303925; conditions: cited from earlier work
# [5] = mice, after 4 hours of treatment; cited from earlier work
Compound,effect on DES1 activity / substrate accumulation (DES1),"increase in dihydroceramide/ceramide ratio, C18 ceramide (DES1)",MEAN RATIO (DH / C) C16 (DES1),MEAN RATIO C18 DHCER/CER (DES1),CER (C16) (DES1; single samples),CER (C18) (DES1; single samples),"Ceramide Content, C16 CER (DES1; single samples)","Ceramide Content, C18 CER (DES1; single samples)","Mass Injected, C16 CER (DES1; single samples)","Mass Injected, C18 CER (DES1; single samples)",RATIO C18 DHCER/CER (DES1; single samples),competition with all-trans-retinoic acid (RARβ [1]),EC50 (RARβ [3]),"Ceramide Content, C18 DHCER (DES1; single samples)",DHCER (C18) (DES1; single samples),"Mass Injected, C18 DHCER (DES1; single samples)",further results
O=C(O)c1ccccc1NC(=O)N1CCC(c2ccccc2C(F)(F)F)CC1 [A1120],do not lead to overaccumulation of substrate,~ 2 fold,0.07,0.153 and 0.1528,18.30 and 24.15 and 18.55,11.60 and 16.65 and 11.05,18.30 ng and 24.15 ng and 18.55 ng,11.60 ng and 16.65 ng and 11.05 ng,3.66 ng and 4.83 ng and 3.71 ng,2.32 ng and 3.33 ng and 2.21 ng,0.136 and 0.202 and 0.120,cannot compete,–,–,–,–,–
"CC1=C(/C=C/C(C)=C/C=C/C(C)=C/C(=O)Nc2ccc(O)cc2)C(C)(C)CCC1 [fenretinide, N-[4-hydroxyphenyl]retinamide]",inhibit DES1 activity,–,–,–,–,–,–,–,–,–,–,–,560 nM,–,–,–,"CER (C16) (DES1; single samples, listed as 4HPR): 17.20 and 18.50 and 17.10; CER (C18) (DES1; single samples, listed as 4HPR): 12.80 and 11.80 and 11.95; Ceramide Content, C16 CER (DES1; single samples, listed as 4HPR): 17.20 ng and 18.50 ng and 17.10 ng; Ceramide Content, C16 DHCER (DES1; single samples, listed as 4HPR): 6.15 ng and 4.01 ng and 5.75 ng; Ceramide Content, C18 CER (DES1; single samples, listed as 4HPR): 12.80 ng and 11.80 ng and 11.95 ng; Ceramide Content, C18 DHCER (DES1; single samples, listed as 4HPR): 9.30 ng and 7.50 ng and 7.25 ng; DHCER (C16) (DES1; single samples, listed as 4HPR): 5.75 and 6.15 and 4.01; DHCER (C18) (DES1; single samples, listed as 4HPR): 9.30 and 7.50 and 7.25; Mass Injected, C16 CER (DES1; single samples, listed as 4HPR): 3.44 ng and 3.70 ng and 3.42 ng; Mass Injected, C16 DHCER (DES1; single samples, listed as 4HPR): 1.230 ng and 0.801 ng and 1.150 ng; Mass Injected, C18 CER (DES1; single samples, listed as 4HPR): 2.56 ng and 2.36 ng and 2.39 ng; Mass Injected, C18 DHCER (DES1; single samples, listed as 4HPR): 1.86 ng and 1.50 ng and 1.45 ng; EC50 (RARβ [2]): 220 nM; IC50 (RARβ [1]; competition with 1 nM at-RA): 10 µM"
"COc1ccc(NC(=O)/C=C(C)/C=C/C=C(C)/C=C/C2=C(C)CCCC2(C)C)cc1 [MPR, N-[4-methoxyphenyl]retinamide]",do not lead to overaccumulation of substrate,–,0.08,0.338 and 0.3375,20.40 and 20.30 and 18.55,14.65 and 15.00 and 13.65,20.40 ng and 20.30 ng and 18.55 ng,14.65 ng and 15.00 ng and 13.65 ng,4.08 ng and 4.06 ng and 3.71 ng,2.93 ng and 3.00 ng and 2.73 ng,0.362 and 0.331 and 0.319,cannot compete,1000 nM and 1010 nM,5.30 ng and 4.97 ng and 4.35 ng,5.30 and 4.97,1.06 ng and 0.99 ng and 0.87 ng,metabolite level as % of plasma levels of 4-HPR [4]: ~ 45%; affinity for RBP4 lower than for fenretinide or retinol (RBP4): 2 fold; Kd (RBP4; read-out: affinity for RBP4): ~100 nM
"CC1=C(/C=C/C(C)=C/C=C/C(C)=C/C(=O)Nc2ccc(O)cc2)C(C)(C)CCC1=O [3-keto-HPR, 4-oxo-N-(4-hydroxyphenyl)retinamide]",inhibit DES1 activity,~ 3 fold,0.66,–,25.15 and 24.70 and 25.05,14.35 and 14.50 and 14.55,25.15 ng and 24.70 ng and 25.05 ng,14.35 ng and 14.50 ng and 14.55 ng,5.03 ng and 4.94 ng and 5.01 ng,2.87 ng and 2.90 ng and 2.91 ng,0.676 and 0.776 and 0.667,–,–,9.70 ng and 11.25 ng,9.70 and 11.25,1.94 ng and 2.25 ng,"MEAN RATIO C18 DHCER/CER (DES1; listed as 3-KETO-HPR): 0.7062; MEAN RATIO C18 DHCER/CER (DES1; listed as KETO): 0.706; Ceramide Content, C16 DHCER (DES1; single samples): 19.55 ng and 15.70 ng and 14.55 ng; DHCER (C16) (DES1; single samples): 19.55 and 15.70 and 14.55; Mass Injected, C16 DHCER (DES1; single samples): 3.910 ng and 3.140 ng and 2.910 ng; RATIO (DH / C) C16 (DES1; single samples): 0.78 and 0.64 and 0.58; metabolite level as % of plasma levels of 4-HPR [5]: ~ 23%"
